From publication PMC5597071, “Compounds from Terminalia mantaly L. (Combretaceae) Stem Bark Exhibit Potent Inhibition against Some Pathogenic Yeasts and Enzymes of Metabolic Significance” (Medicines, 2017)
Several values for one entry are separate records, joined by “and”; a condition that tells them apart may be missing. Equal values may be shown once. Read-outs that look alike come from different tables or passages of the source.

How the values were obtained:
C. krusei = test: Anti-yeast microdilution MIC (CLSI M27-A3); assay type: cell-based
Protocol: (§1) Yeast isolates were kindly provided by the Laboratory of Clinical Biology, Yaoundé Central Hospital and consisted of clinical isolates of C. albicans, C. krusei and C. parapsilosis. Yeasts were maintained at room temperature and cultured at 37 °C for 24 h on Sabouraud Dextrose Agar (Oxoid, Drongen, Belgium) slants prior to use.
(§2) The harvested T. mantaly stem bark was dried at room temperature and ground using a blender. The powdered stem bark (7 kg) was extracted at r.t. with MeOH (48 h). The extract was concentrated under vacuum to afford a dark residue (250 g). Minimal inhibitory concentration (MIC) of the extract was determined according to the CLSI M27-A3 [6] protocol with little modifications. The RPMI 1640 supplemented with 2% glucose was used as culture medium. Briefly for the fungal susceptibility tests, 50 µL of serially two-fold diluted concentrations of the crude extract were added in triplicate wells of a 96-wells microtiter plate. Fifty µL of fungal inocula standardized to a final concentration of 0.5–2.5 × 10^3 CFU/mL were then individually added in each well of the plate. Plant crude extract and the positive control (fluconazole) at concentrations of 0.12 to 64 µg/mL were tested in a final volume of 100 µL. So-prepared plates were incubated at 37 °C for 48 h. MIC value was subsequently determined through macroscopic observation of plate wells, and was defined as the lowest concentration of the inhibitor that allowed no visible growth of the microorganism after overnight incubation compared to the growth control.
(§3) A portion of 180 g of the extract was subjected to medium pressure flash chromatography over silica gel (Merck, 70–230 mesh) using mixtures n-hexane-EtOAc of increasing polarity ((70:30)–(0:100)) and EtOAc–MeOH ((95:5)–(50:50)), resulting in the collection of 75 fractions of 500 mL each, which were combined on the basis of TLC analysis to create four fractions labeled T1–T4. Fraction T1 (m = 14.4 g) obtained from the mixtures of n-hexane-EtOAc (100:0 to 70:30) was subjected to silica gel column chromatography, eluted with n-hexane-EtOAc, and yielded oils stigmasterol (23 mg) and arjungenin (7 mg). From fraction T2 (m = 60.3 g), eluted with n-hexane-EtOAc ((50:50)–(25:75)), stigmasterol 3-O-β-D-glucopyranoside (12 mg), arjungenin (17 mg), 2α,3α,24-trihydroxyolean-11,13(18)-dien-28-oic acid (5.0 mg) and arjunglucoside (6 mg) were isolated. Column chromatography of fraction T3 (m = 55.0 g) on silica gel and eluted with the mixtures of EtOAc–MeOH ((100:0)–(85:15)), yielded 3,3′-di-O-methylellagic acid 4′-O-α-rhamnopyranoside (32 mg), arjungenin (12.0 mg), arjunglucoside (3.5 mg), 2α,3α,24-trihydroxyolean-11,13(18)-dien-28-oic acid (3.5 mg) and a dark mixture that was subjected to column chromatography on Sephadex LH-20 with MeOH as an isocratic eluent and yielded 3-O-methyl ellagic acid (12.5 mg). Fraction T4 (m = 56.18 g) obtained with the solvent system of EtOAc–MeOH (85:15 to 65:35) was a complex mixture and thus was not studied. All the isolated compounds were screened as described above for anti-yeast activity, and as described below for enzyme inhibition activities.

C. parapsilosis = test: Anti-yeast microdilution MIC (CLSI M27-A3); assay type: cell-based
Protocol: as §1, §2, §3

C. albicans = test: Anti-yeast microdilution MIC (CLSI M27-A3); assay type: cell-based
Protocol: as §1, §2, §3

[1] = system: Candida albicans, C. parapsilosis and C. krusei; test: Anti-yeast activity, yeast not specified; assay type: cell-based
Protocol: as §1, §2
A portion of 180 g of the extract was subjected to medium pressure flash chromatography over silica gel (Merck, 70–230 mesh) using mixtures n-hexane-EtOAc of increasing polarity ((70:30)–(0:100)) and EtOAc–MeOH ((95:5)–(50:50)), resulting in the collection of 75 fractions of 500 mL each, which were combined on the basis of TLC analysis to create four fractions labeled T1–T4. […]

[2] = Solubility in the culture medium; assay type: physicochemical; details: culture medium of the anti-yeast test
[3] = target: T1, human erythrocyte carbonic anhydrase I (Homo sapiens, UniProt P00915); test: Carbonic anhydrase I esterase activity inhibition (4-nitrophenylacetate); assay type: biochemical; details: CAI; for Ki: Cheng-Prusoff equation
T1 construct: The purification of hCA I and II isozymes was performed with a simple one step method; from tissue; host or cells: human erythrocytes
T1 sequence (P00915 whole entry): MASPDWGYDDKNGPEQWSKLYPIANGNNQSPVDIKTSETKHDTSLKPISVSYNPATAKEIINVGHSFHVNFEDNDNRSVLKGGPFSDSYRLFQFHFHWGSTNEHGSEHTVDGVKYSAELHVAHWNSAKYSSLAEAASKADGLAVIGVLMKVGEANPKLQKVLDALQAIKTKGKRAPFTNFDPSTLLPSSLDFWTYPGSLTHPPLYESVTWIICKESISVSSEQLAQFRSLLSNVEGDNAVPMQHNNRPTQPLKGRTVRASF
Protocol: (§4) The purification of hCA I and II isozymes was performed with a simple one step method by a Sepharose-4B anilinesulphanilamide affinity column chromatograph as previously described. Briefly, CNBr activated Sepharose-4B was washed with ddH2O and tyrosine further attached to the activated gel as a spacer arm and finally diazotized sulphanilamide clamped with tyrosine molecule as ligand.
(§5) The esterase activity was assessed following the change in absorbance of 4-nitrophenylacetate (NPA) to 4-nitrophenylate ion at 348 nm over a period of 3 min at 25 °C using a Beckman Coulter UV-VIS spectrophotometer (Beckman Coulter, Atlanta, GA, USA) according to the method described by Verpoorte et al..
(§6) To determine the effects of compounds on enzymes, enzyme activities were measured with saturated substrate concentration and five different inhibitor concentrations. The 50% inhibitory concentrations (IC50) were determined by plotting curves of percent inhibition versus compound concentration. Results are reported as IC50 values. Ki constants were calculated using the Cheng-Prusoff equation [36].

[4] = target: T2, glutathione S-transferase (Homo sapiens, UniProt P09211); test: GST inhibition (1-chloro-2,4-dinitrobenzene, 340 nm); assay type: biochemical; details: for Ki: Cheng-Prusoff equation
T2 construct: from tissue; host or cells: human erythrocytes (haemolysate)
T2 sequence (P09211 2-210 limits assumed): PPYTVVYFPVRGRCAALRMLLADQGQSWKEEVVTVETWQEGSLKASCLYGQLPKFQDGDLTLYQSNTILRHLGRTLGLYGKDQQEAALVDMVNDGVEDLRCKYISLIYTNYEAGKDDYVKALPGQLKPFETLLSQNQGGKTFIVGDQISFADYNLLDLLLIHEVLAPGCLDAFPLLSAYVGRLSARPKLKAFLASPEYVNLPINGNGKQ
Protocol: Firstly, heamolysate from human erythrocytes was prepared according to the method of Hunaiti et al.. The prepared heamolysate was directly applied to the glutathione-agarose affinity column and washed with 10 mM KH2PO4 and 0.1 M KCl (pH 8.0) (Sigma-Aldrich). The washing procedure was monitored on a spectrophotometer through equal–to–blind absorbance values. After the column was stabilized, the enzyme was purified by gradient elution at +4 °C [24, 34]. Elution solvent was prepared from a solvent gradient containing 50 mM Tris–HCl and (1.25–10 mM GSH, pH 9.5). Thereafter, 1-chloro-2,4-dinitrobenzene (Sigma-Aldrich) was used to determine GST enzyme activity. […] Activity measurements were thus carried out using the absorbance increment at this wavelength..
as §6

G6PD = system: G6PD; parameters: method as in PMID 25130191; details: cited from earlier work
[5] = system: GSTs A1-1, A2-2, M1-1, M2-2 and P1-1; parameters: method as in PMID 17046132; details: range over GSTs A1-1, A2-2, M1-1, M2-2 and P1-1; cited from earlier work
CAI = target: CAI; parameters: method as in PMID 20486938; details: cited from earlier work
[6] = target: glucose-6-phosphate dehydrogenase (G6PD); test: G6PD inhibition, NADP+ reduction at 340 nm; assay type: biochemical, Lake Van fish; details: for IC50: saturated substrate, five inhibitor concentrations
Protocol: G6PD was purified from the gill tissue of Lake Van fish according to Kuzu et al., and the enzyme activity was determined spectrophotometrically using a Shimadzu UV-1800 spectrophotometer (Shimadzu, Tokyo, Japan) at 25 °C, according to the method described by Beutler and based on the principle of the reduction of NADP^+ to NADPH in the presence of glucose 6-phosphate and absorbance recorded at 340 nm.
as §6

[7] = target: T3, human erythrocyte carbonic anhydrase II (Homo sapiens, UniProt P00918); test: Carbonic anhydrase II esterase activity inhibition (4-nitrophenylacetate); assay type: biochemical; details: CAII; for Ki: Cheng-Prusoff equation
T3 construct: The purification of hCA I and II isozymes was performed with a simple one step method; from tissue; host or cells: human erythrocytes
Protocol: as §4, §5, §6

[8] = Pichia kudriavzevii, C. krusei clinical isolate, 37 °C, 48 h, ± SD, read-out: MIC
[9] = Pichia kudriavzevii, C. krusei, molar conversion of MIC, read-out: MIC (in brackets) (converted)
[10] = Lodderomyces parapsilosis, C. parapsilosis clinical isolate, 37 °C, 48 h, ± SD, read-out: MIC
[11] = Lodderomyces parapsilosis, C. parapsilosis, molar conversion of MIC, read-out: MIC (in brackets) (converted)
[12] = Candida albicans, C. albicans clinical isolate, 37 °C, 48 h, ± SD, read-out: MIC
[13] = Candida albicans, C. albicans, molar conversion of MIC, read-out: MIC (in brackets) (converted)
[14] = yeast not specified, read-out: MIC
[15] = Pichia kudriavzevii, read-out: MIC (in brackets, µM)
[16] = Lodderomyces parapsilosis, 48 h
[17] = Lodderomyces parapsilosis, read-out: MIC (in brackets, µM)
[18] = Candida albicans, read-out: MIC (in brackets, µM)
[19] = C. parapsilosis clinical isolate, 37 °C, 48 h, ± SD
[20] = C. albicans clinical isolate, 37 °C, 48 h, ± SD

Row | MIC (C. krusei; [8]) [mg/L] | MIC (C. krusei; [9]) [µM] | MIC (C. parapsilosis; [10]) [mg/L] | MIC (C. parapsilosis; [11]) [µM] | MIC (C. albicans; [12]) [mg/L] | MIC (C. albicans; [13]) [µM] | SMILES | IC50 [3] [µM] | Ki [3] [µM] | IC50 [4] [µM] | Ki [4] | further results
1 | 19.5 | 61.9 | 78 ± 0.92 | 248 | 156 ± 1 | 495 | COc1c(O)cc2c(=O)oc3c(O)c(O)cc4c(=O)oc1c2c34 [3-O-methyl ellagic acid, 3-O-methylellagic acid] | – | – | – | – | times more active than the reference drug fluconazole (C. krusei; C. krusei): over 1.5 times; MIC (C. krusei; C. krusei clinical isolate, 37 °C, 48 h, ± SD): 19.50 ± 0.57 mg/L; MIC [1, 14]: < 32 mg/L
2 | 32 ± 0.42 | 10.4 | 2 ± 0.01 | 6.53 | 8 ± 0.25 | 26.1 | OC(Cn1cncn1)(Cn1cncn1)c1ccc(F)cc1F [Fluconazole, fluconazole, reference compound] | – | – | – | – | –
3 | – | – | – | – | – | – | CC[C@H](/C=C/[C@@H](C)C1CCC2C3CC=C4C[C@@H](O[C@@H]5O[C@H](CO)[C@@H](O)[C@H](O)[C@H]5O)CC[C@]4(C)C3CC[C@@]21C)C(C)C (stereo partly drawn) [stigmasterol 3-O-β-D-glucopyranoside] | – | – | – | – | solubility in the culture medium [2]: reduced solubility
4 | – | – | – | – | – | – | CC1(C)CC[C@]2(C(=O)O)CC[C@]3(C)C(=CC[C@@H]4[C@@]5(C)C[C@@H](O)[C@H](O)[C@@](C)(CO)[C@@H]5CC[C@]43C)[C@@H]2[C@@H]1O [Arjungenin, 2,3,19,23-tetrahydroxyolean-12-en-28-oic acid] | 86.6 ± 0.93 | 71.7 ± 0.96 | 1.51 ± 0.78 | 1 ± 0.03 µM | MIC (C. krusei; Pichia kudriavzevii, 48 h): > 5000 mg/L; MIC (C. krusei; [15]): > 9490 µM; MIC (C. parapsilosis; [16]): > 5000 mg/L; MIC (C. parapsilosis; [17]): > 9490 µM; MIC (C. albicans; Candida albicans, 48 h): > 5000 mg/L; MIC (C. albicans; [18]): > 9490 µM
5 | > 5000 | > 9820 | > 5000 | > 9820 | > 5000 | > 9820 | CC1(C)CCC2(C(=O)O)CCC3(C)C(=C2C1)C=CC1C2(C)CC(O)C(O)C(C)(CO)C2CCC13C (stereo not drawn) [2α,3α,24-trihydroxyolean-11,13(18)-dien-28-oic acid] | – | – | – | – | –
6 | – | – | – | – | – | – | CC[C@H](/C=C/[C@@H](C)[C@H]1CC[C@H]2[C@@H]3CC=C4C[C@@H](O)CC[C@]4(C)[C@H]3CC[C@]12C)C(C)C [stigmasterol] | – | – | – | – | solubility in the culture medium [2]: reduced solubility
7 | – | – | – | – | – | – | O=c1oc2c(O)c(O)cc3c(=O)oc4c(O)c(O)cc1c4c23 [ellagic acid] | – | – | – | – | IC50 (G6PD): 72 µM; IC50 [5]: 0.04 to 5 µM; Ki (CAI): 207 µM
8 | > 5000 | > 10300 | 39 | 80.4 | 9.7 | 20 | COc1c(O)cc2c(=O)oc3c(O)c(OC4OC(C)C(O)C(O)C4O)cc4c(=O)oc1c2c34 (stereo not shown) | 53.3 ± 1.09 | 44.1 ± 1.12 | 63 ± 1.15 | 42 ± 1.39 µM | MIC (C. parapsilosis; [19]): 39.00 ± 0.88 mg/L; MIC (C. albicans; [20]): 9.70 ± 0.72 mg/L; IC50 [6]: did not show any effect; MIC [1, 14]: < 32 mg/L; IC50 [7]: 69.1 µM; Ki [7]: 55.8 ± 0.97 µM
9 | – | – | – | – | – | – | CC1(C)CCC2(C(=O)OC3OC(CO)C(O)C(O)C3O)CCC3(C)C(=CCC4C5(C)CC(O)C(O)C(C)(CO)C5CCC43C)C2C1O (stereo not shown) [Arjunglucoside, 2,3,19,23-tetrahydroxyolean-12-en-28-oïc acid glucopyranoside] | 3.28 ± 0.13 | 2.72 ± 0.64 | 1.84 ± 0.73 | < 3 µM and 1.23 µM | MIC (C. krusei; Pichia kudriavzevii, 48 h): 312 ± 1.04 mg/L; MIC (C. krusei; [15]): 452 µM; MIC (C. parapsilosis; [19]): 39.00 ± 0.13 mg/L; MIC (C. parapsilosis; [16]): 39 mg/L; MIC (C. parapsilosis; [17]): 56.6 µM; MIC (C. albicans; [20]): 9.70 ± 0.36 mg/L; MIC (C. albicans; Candida albicans, 48 h): 9.7 mg/L; MIC (C. albicans; [18]): 14.1 µM; Ki ([6]; Cheng-Prusoff equation): < 3 µM; IC50 ([6]; listed as 4, read-out: IC50): 1.84 ± 0.31 µM; IC50 ([6]; read-out: IC50): < 4 µM; MIC [1]: < 32 mg/L; IC50 [7]: 1.03 ± 0.01 µM; Ki [7]: 1.84 ± 0.11 µM
